According to patent publication EP4512806A1, “MOLECULAR GLUE DEGRADERS AND USES THEREOF” (Mablink Bioscience, priority 2023, dated 2025):

How the values were obtained:
[1] = system: panel of human cancer cell lines; experiment: In vitro cytotoxicity assay (MTT), panel of cell lines; format: cell-based; settings: panel of human cancer cell lines, in words
Text: (§1) Human cancer cell lines used in the present project were purchased from either the American Type Culture Collection (ATCC), The Leibniz Institute DSMZ German Collection of Microorganisms and Cell Cultures GmbH (DSMZ) or the European Collection of Authenticated Cell Cultures (ECACC). For use in experiments, cells were cultivated following good and established cell culture practices, following instructions from the original ATCC/DSMZ/ECACC supplier for cell culture media & supplement, cryopreservation, and subculturing procedures. Cells were incubated under a 5% CO2 atmosphere at 37°C for no longer than 2 months.
(§2) In vitro cytotoxicity of compounds of the disclosure was assessed on several cancerous human cell lines. Cells were plated in 96-well plates at an appropriate density depending on the cell line (between 1000 and 10 000 cells/well in 100µL of appropriate culture media) and incubated at 37°C for 24 hours. Serial dilutions of the tested compound previously dissolved in culture media (50µL) were added, and incubation was carried at 37°C out for 6 days. MTT (5mg/mL in PBS, 20µL, Sigma-Aldrich) was added into the wells, and incubation was continued for 1 to 4 hours at 37°C. Culture media was then carefully removed, and well content was homogeneously dissolved with acidified isopropanol. Absorbance values were measured on a microplate reader using a wavelength of 570 nm (with a reference wavelength of 690 nm). The IC50 concentration values compared to untreated control cells were determined using inhibition dose response curve fitting (GraphPad Prism 9). Exatecan mesylate (cat#HY-13631A) and CR8 (CAS# 294646-77-8; cat#HY-18340) were purchased from MedChemExpress (China).

[2] = system: JIMT-1; experiment: In vitro cytotoxicity assay (MTT); format: cell-based, human; settings: 6 days incubation
Text: as §1, §2

[3] = system: MDA-MB-231; experiment: In vitro cytotoxicity assay (MTT); format: cell-based, human; settings: 6 days incubation
Text: as §1, §2

[4] = system: BT-474; experiment: In vitro cytotoxicity assay (MTT); format: cell-based, human; settings: 6 days incubation
Text: as §1, §2

[5] = system: MDA-MB-453; experiment: In vitro cytotoxicity assay (MTT); format: cell-based, human; settings: 6 days incubation
Text: as §1, §2

[6] = system: SKBR-3; experiment: In vitro cytotoxicity assay (MTT); format: cell-based, human; settings: 6 days incubation
Text: as §1, §2

[7] = system: NCI-N87; experiment: In vitro cytotoxicity assay (MTT); format: cell-based, human; settings: 6 days incubation
Text: as §1, §2

[8] = system: JIMT-1 cells; experiment: Cell cycle arrest assessment (propidium iodide, flow cytometry); format: cell-based, human
Method: 1×10^6 JIMT-1 cells were plated in 3mL of DMEM/FBS 90:10 (v/v) in 6-well plates and incubated overnight. Cells were treated with the compound 2384 of the invention or with CR8 for 24h. Cells were then harvested and washed three times with PBS. Cells were suspended into 300µL of propidium iodide working solution (0.05mg/mL) and incubated for 45 minutes at 4°C in the dark. Analysis was performed using a BD Fortessa flow cytometer controlled by BD FACSDiva software (BD Biosciences) and data were analyzed using FlowJo software (BD Bioscience).

[9] = biological target: T1, CycK (Homo sapiens, UniProt O75909); experiment: CycK protein quantification by Western Blot in JIMT-1 cells; format: cell-based; settings: 2h treatment, 10nM
T1 construct: endogenous in cells; host or cells: JIMT-1
Method: 1×10^6 JIMT-1 cells were plated in 3mL of DMEM/FBS 90:10 (v/v) in 6-well plates and incubated overnight. Cells were treated with the compound 2384 of the invention with or without the proteasome inhibitor MG-132 (MedChemExpress, Cat HY-13259) for 2h. Cells were harvested, and protein were extracted using complete RIPA buffer (RIPA buffer, 1 mM DTT, 1M NaF, 100 mM sodium orthovanadate, phosphatase inhibitor buffer and protease inhibitors) for 1 hour on ice. Lysate were centrifuged 15min at 12 000g at 4°C. and proteins were mixed with 4x Laemmli Sample Buffer (Bio-Rad), heated at 95 °C for 5 mins and separated by SDS PAGE (PROTEAN TGX Stain-Free Gels, Bio-Rad). Proteins were then transferred onto PVDF membrane (iBlot®2 PVDF stacks, Invitrogen) using the iBlot2 device (Invitrogen) and blocked with TBS buffer (Intercept® Blocking Buffer, LI-COR Biosciences). Primary antibodies were incubated overnight at 4°C and secondary antibodies (IRDye Infrared Dyes from LI-COR Biosciences) 1 hour at room temperature. Used primary antibody were: anti-CycK (cat#A301-939A, Bethyl Laboratories, dil. 1:1000) and anti-β-actin (cat#A5441, Sigma-Aldrich, dil. 1:5000). Membranes were scanned using a c500 Imaging System (Azure Biosystems) and densitometric quantification were performed using imaged software. Protein levels were normalized against β-actin.

T1 sequence (O75909 whole entry): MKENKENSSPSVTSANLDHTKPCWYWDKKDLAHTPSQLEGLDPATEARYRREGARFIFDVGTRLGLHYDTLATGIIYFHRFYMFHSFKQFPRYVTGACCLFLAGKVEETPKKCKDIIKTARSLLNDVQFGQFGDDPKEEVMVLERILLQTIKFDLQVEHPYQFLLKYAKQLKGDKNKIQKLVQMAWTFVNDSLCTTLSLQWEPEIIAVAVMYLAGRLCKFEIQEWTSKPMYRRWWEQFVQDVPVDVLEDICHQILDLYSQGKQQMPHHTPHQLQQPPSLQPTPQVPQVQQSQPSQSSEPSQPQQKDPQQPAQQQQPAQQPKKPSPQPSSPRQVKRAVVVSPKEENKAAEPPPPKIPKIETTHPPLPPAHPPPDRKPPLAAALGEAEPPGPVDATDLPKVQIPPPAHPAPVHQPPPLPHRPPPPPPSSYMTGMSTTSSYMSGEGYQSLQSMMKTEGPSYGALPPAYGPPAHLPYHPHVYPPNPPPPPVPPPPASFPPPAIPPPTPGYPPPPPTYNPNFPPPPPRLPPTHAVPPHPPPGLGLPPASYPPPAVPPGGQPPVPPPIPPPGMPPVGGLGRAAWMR
T1 sequence (Q9NYV4 whole entry partner): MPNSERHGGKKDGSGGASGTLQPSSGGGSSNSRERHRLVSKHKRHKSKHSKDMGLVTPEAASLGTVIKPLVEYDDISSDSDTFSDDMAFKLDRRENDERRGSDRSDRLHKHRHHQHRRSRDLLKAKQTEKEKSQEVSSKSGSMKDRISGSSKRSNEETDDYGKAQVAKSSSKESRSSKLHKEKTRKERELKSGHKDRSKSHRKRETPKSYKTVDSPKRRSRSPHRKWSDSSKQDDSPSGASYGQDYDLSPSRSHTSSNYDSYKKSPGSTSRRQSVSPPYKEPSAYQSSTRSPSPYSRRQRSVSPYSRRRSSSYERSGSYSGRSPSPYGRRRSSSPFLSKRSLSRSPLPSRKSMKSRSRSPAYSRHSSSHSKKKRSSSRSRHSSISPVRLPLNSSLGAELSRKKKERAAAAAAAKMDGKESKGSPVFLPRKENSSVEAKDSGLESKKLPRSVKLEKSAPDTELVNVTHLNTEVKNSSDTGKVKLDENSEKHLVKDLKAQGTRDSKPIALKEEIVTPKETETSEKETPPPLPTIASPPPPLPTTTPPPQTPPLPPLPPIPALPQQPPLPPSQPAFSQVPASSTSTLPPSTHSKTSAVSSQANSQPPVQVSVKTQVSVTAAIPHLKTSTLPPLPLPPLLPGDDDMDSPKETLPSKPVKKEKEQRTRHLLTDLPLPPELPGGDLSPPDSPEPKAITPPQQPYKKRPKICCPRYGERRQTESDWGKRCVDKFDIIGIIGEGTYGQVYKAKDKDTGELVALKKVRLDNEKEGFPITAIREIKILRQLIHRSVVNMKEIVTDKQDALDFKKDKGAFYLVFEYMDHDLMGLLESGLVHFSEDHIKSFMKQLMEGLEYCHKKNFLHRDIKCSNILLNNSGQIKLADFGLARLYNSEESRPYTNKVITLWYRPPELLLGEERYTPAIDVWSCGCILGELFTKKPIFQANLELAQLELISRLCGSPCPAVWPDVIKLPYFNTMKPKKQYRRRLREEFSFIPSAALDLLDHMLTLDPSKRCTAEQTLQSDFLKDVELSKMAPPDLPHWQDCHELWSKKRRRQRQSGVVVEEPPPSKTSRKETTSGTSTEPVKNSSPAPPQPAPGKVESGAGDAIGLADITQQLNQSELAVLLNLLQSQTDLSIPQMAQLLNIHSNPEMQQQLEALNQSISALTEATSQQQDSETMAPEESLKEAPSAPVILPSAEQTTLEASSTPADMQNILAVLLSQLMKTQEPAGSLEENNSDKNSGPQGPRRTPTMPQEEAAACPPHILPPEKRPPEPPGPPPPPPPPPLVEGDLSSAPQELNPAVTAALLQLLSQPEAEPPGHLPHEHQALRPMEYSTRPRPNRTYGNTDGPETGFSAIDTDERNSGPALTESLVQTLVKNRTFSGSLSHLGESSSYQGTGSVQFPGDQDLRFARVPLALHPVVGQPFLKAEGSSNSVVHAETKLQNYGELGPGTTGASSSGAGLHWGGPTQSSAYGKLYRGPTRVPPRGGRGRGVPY
T1 sequence (Q16531 whole entry partner): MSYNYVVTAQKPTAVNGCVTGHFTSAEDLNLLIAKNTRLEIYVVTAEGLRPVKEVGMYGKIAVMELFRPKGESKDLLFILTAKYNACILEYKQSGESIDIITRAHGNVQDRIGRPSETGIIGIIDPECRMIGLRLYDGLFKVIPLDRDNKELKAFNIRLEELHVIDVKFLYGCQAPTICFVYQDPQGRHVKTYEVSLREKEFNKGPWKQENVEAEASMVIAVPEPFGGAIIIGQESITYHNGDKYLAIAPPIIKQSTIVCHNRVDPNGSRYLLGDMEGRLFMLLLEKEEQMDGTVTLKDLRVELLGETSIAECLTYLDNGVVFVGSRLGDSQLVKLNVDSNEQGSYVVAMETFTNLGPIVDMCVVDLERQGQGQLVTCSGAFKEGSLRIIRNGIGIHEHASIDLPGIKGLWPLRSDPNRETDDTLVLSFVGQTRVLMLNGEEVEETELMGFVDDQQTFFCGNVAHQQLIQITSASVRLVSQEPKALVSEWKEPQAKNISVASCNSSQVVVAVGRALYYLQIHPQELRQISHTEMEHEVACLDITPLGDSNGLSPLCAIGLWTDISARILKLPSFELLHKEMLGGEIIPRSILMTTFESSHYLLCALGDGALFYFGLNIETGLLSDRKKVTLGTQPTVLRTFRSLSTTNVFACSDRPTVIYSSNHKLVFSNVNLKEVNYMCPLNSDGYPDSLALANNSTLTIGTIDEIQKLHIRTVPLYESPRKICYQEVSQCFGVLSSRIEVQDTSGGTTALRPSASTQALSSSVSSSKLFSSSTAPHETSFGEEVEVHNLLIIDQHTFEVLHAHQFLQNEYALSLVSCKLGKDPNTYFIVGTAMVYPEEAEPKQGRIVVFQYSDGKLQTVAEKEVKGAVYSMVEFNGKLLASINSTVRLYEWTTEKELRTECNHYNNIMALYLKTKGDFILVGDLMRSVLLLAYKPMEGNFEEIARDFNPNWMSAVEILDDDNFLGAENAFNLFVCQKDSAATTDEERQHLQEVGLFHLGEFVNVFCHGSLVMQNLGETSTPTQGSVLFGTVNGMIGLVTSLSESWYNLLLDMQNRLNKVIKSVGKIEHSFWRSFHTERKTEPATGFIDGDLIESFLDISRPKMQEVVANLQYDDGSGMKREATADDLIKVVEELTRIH

**Q.** How did the “in vitro cytotoxic potency” value [1] turn out when `CC[C@H](CO)Nc1nc(NCc2ccc(-c3ccccn3)cc2)c2ncn(C(C)C)c2n1` [CR8, reference compound] was run?
**A.** high nanomolar range

**Q.** What about the IC50 [2] of the same compound?
**A.** 25.2 nM

**Q.** And the IC50 [3]?
**A.** 10.4 nM

**Q.** What about the IC50 [4] of the same compound?
**A.** 18.4 nM

**Q.** And the IC50 [5]?
**A.** 40.3 nM

**Q.** And the IC50 [6]?
**A.** 30.6 nM

**Q.** And the IC50 [7]?
**A.** 62.2 nM

**Q.** What about the “cell cycle analysis (propidium iodide)” value ([8]; 24h, 50 nM) of the same compound?
**A.** arrest in G2/M phase

**Q.** And the “cell cycle analysis (propidium iodide)” value ([8]; 24h, 2, 5, and 10 nM)?
**A.** no impact on cell cycle

**Q.** And the CycK degradation [9]?
**A.** no CycK was observed
